Assay type in all cases: cell-based, human
Test [1] has as its system primitive streak-like mesoderm population. The test is described as follows: Paraxial mesoderm specification in monolayer culture, flow cytometry of cell surface markers. On the procedure: FIG. 2. Characterization of paraxial mesoderm derived from hPSCs. Flow cytometric analysis of day 5 mesoderm treated with no additional factors (0 DM, no FGF), FGF, 4 μM DM, or 4 μM DM+FGF. Day 5 profiles depict KDR and PDGFRa expression, a double-positive population (gated) indicates mesoderm that has cardiac potential (20). Treatment with FGF results in less PDGFRa expression on day 5. (B) Expression of cell surface markers CD73, CD105, and PDGFR-beta on mesoderm populations on day 15 of differentiation. […] Experimental cell treatments during day 4 to day 6 include the combination of Dorsomorphin, bFGF, TGFbeta inhibitor (SB431542) in the presence or absence of the wnt pathway inhibitor IWP2. Flow cytometric analyses of CD73 and CD105, on day 15 mesoderm populations derived as indicated. (D) Gene expression analyses of day 15 mesoderm populations derived in indicated factors. Nkx2.5 is a cardiac transcription factor, Meox1 and Nkx3.2 are paraxial mesoderm and somite transcription factors. (E) Micrographs depicting 1 day old micromasses and 1 week old micromasses derived from day 15 mesoderm populations as indicated. (F) Flow cytometric analysis of cardiac troponin T (cTnT) expression in 1 week old micromasses derived from day 15 mesoderms as indicated. […] To generate chondrocytes, it is essential to first specify this PS population to a paraxial mesoderm fate. Previous studies have shown that mesoderm populations that express cell surface markers often found on mesenchymal stem cells, CD73 and CD105, have chondrogenic potential (Hwang, Kim et al. 2006). The expression of these two cell surface markers, as well as the expression of transcription factors Meox1 and Nkx3.2 combined with the lack of expression of Nkx2.5 to monitor the emergence of a paraxial mesoderm population was used. Previous experiments in the mouse ESC model system have shown the importance of inhibiting the BMP signaling pathway in the context of FGF signaling to prevent the emergence of cardiac mesoderm and promote the development of paraxial mesoderm (Craft, Ahmed et al. 2013). […] Very few cells in untreated mesoderm conditions expressed CD73 and CD105 (7.46%, FIG. 2B). […] The changes in expression of these surface markers were accompanied by the upregulation of paraxial genes Meox1 and Nkx3.2 (FIG. 2C). […] Thus, in some cell lines, the efficiency of paraxial mesoderm specification may be improved in the presence of a Wnt pathway antagonist immediately following the PS mesoderm induction phase.
For orientation: In flow cytometry, cells or beads pass a laser one at a time.

For test [2], the system named is day 15 mesoderm populations. Briefly: Gene expression analyses of day 15 mesoderm populations. The protocol: FIG. 2. Characterization of paraxial mesoderm derived from hPSCs. Flow cytometric analysis of day 5 mesoderm treated with no additional factors (0 DM, no FGF), FGF, 4 μM DM, or 4 μM DM+FGF. Day 5 profiles depict KDR and PDGFRa expression, a double-positive population (gated) indicates mesoderm that has cardiac potential (20). Treatment with FGF results in less PDGFRa expression on day 5. (B) Expression of cell surface markers CD73, CD105, and PDGFR-beta on mesoderm populations on day 15 of differentiation. […] Experimental cell treatments during day 4 to day 6 include the combination of Dorsomorphin, bFGF, TGFbeta inhibitor (SB431542) in the presence or absence of the wnt pathway inhibitor IWP2. Flow cytometric analyses of CD73 and CD105, on day 15 mesoderm populations derived as indicated. (D) Gene expression analyses of day 15 mesoderm populations derived in indicated factors. Nkx2.5 is a cardiac transcription factor, Meox1 and Nkx3.2 are paraxial mesoderm and somite transcription factors. (E) Micrographs depicting 1 day old micromasses and 1 week old micromasses derived from day 15 mesoderm populations as indicated. (F) Flow cytometric analysis of cardiac troponin T (cTnT) expression in 1 week old micromasses derived from day 15 mesoderms as indicated. […] To generate chondrocytes, it is essential to first specify this PS population to a paraxial mesoderm fate. […]

In test [3] the test system is day 15 mesoderm populations. Briefly: Micromass assay of day 15 mesoderm populations. On the procedure:
FIG. 2. Characterization of paraxial mesoderm derived from hPSCs. Flow cytometric analysis of day 5 mesoderm treated with no additional factors (0 DM, no FGF), FGF, 4 μM DM, or 4 μM DM+FGF. Day 5 profiles depict KDR and PDGFRa expression, a double-positive population (gated) indicates mesoderm that has cardiac potential (20). Treatment with FGF results in less PDGFRa expression on day 5. (B) Expression of cell surface markers CD73, CD105, and PDGFR-beta on mesoderm populations on day 15 of differentiation. […] Experimental cell treatments during day 4 to day 6 include the combination of Dorsomorphin, bFGF, TGFbeta inhibitor (SB431542) in the presence or absence of the wnt pathway inhibitor IWP2. Flow cytometric analyses of CD73 and CD105, on day 15 mesoderm populations derived as indicated. (D) Gene expression analyses of day 15 mesoderm populations derived in indicated factors. Nkx2.5 is a cardiac transcription factor, Meox1 and Nkx3.2 are paraxial mesoderm and somite transcription factors. (E) Micrographs depicting 1 day old micromasses and 1 week old micromasses derived from day 15 mesoderm populations as indicated. (F) Flow cytometric analysis of cardiac troponin T (cTnT) expression in 1 week old micromasses derived from day 15 mesoderms as indicated. […] Previous studies have shown that TGFBeta/BMP signaling is required to generate chondrocyte progenitors from paraxial mesoderm. […] Following 10 days of TGFb3 treatment (day 25 total), cultures could be switched to media containing BMP4 or maintained in TGFb3 (stage 4) in order to specify subsets of chondrocytes (articular/non-hypertrophic or growth plate/hypertrophic). To determine the chondrocyte potential of the day 15 mesoderm populations, the cells were plated at high cell density in a 20 microliter volume on tissue culture treated Petri dishes for an hour (micromass) and then the ‘spot’ was submerged/covered with media. In our initial studies, the cells were ‘spotted’ in a media containing 2% fetal bovine serum. […]

As to “bFGF: basic fibroblast growth factor, FGF agonist”, the “expression patterns of PDGFRa and KDR” value in test [1] (T5, versus untreated mesoderm, DM T4 to T6) is “did not change the PDGFRa/KDR population drastically”. Besides, the “proportion of cells expressing CD73 and CD105” value in test [1] (day 15, FGF day 4 to day 15, DM T4-T6) came to 52%. Moreover, the “PDGF receptor beta expression on CD73-positive cells” value in test [1] (day 15 monolayers) is “also expressed the PDGF receptor beta”. In addition, in test [2], the Meox1 expression result is listed as “upregulation” and the Nkx3.2 expression entry was “upregulation”. For the same substance, the “generation of cardiomyocytes (cTnT)” value in test [3] (1 week of micromass culture) is “did not generate any cardiomyocytes”. In test [3] (after 4 weeks of micromass culture, treatment in monolayer phase), the cartilage-like tissue formation entry was “did not maintain a cartilage tissue phenotype”. Moreover, the “adherence and survival in micromass culture” value in test [3] (first week of micromass culture) is on record as “survived the first week of micromass culture as an adherent layer of cells”.

Values taken from patent US10736923B2, “Methods and compositions for generating chondrocyte lineage cells and/or cartilage like tissue” (UNIVERSITY HEALTH NETWORK, priority 2013, dated 2020).
